Laboratory results published in ChEMBL document CHEMBL1201862, “PubChem BioAssay data set” (2004).
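Step 1: Grow cells in 96-well plates. Step 2: Expose to compound for 48 hours at 5 concentrations. Step 3: Interpolate endpoints linearly; if unreached, use highest concentration. Abbreviation: GI50, concentration required for 50% inhibition of growth.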 Active and inactive are the calls of the source. No stated cut-off is given here; in the data, active = GI50 up to about 1.1 µM and inactive = higher.

Experiments:
Assay in all cases: NCI anticancer screen, dose series, 48 h
[1] = system: CAKI-1
[2] = system: CCRF-CEM
[3] = system: EKVX
[4] = system: HCC 2998
[5] = system: HCT-15
[6] = system: HOP-62
[7] = system: HT-29
[8] = system: Hs-578T
[9] = system: Malme-3M
[10] = system: NCI-H522
[11] = system: PC-3
[12] = system: RPMI-8226
[13] = system: RXF 393
[14] = system: SK-MEL-5
[15] = system: SK-OV-3
[16] = system: SN12C
[17] = system: SNB-19
[18] = system: SNB-75
[19] = system: U-251
[20] = system: UACC-257

SMILES	GI50 [1]	GI50 [2]	GI50 [3]	GI50 [4]	GI50 [5] [µM]	GI50 [6]	GI50 [7]	GI50 [8]	GI50 [9]	GI50 [10]	GI50 [11]	GI50 [12]	GI50 [13]	GI50 [14]	GI50 [15]	GI50 [16]	GI50 [17]	GI50 [18]	GI50 [19]	GI50 [20]
C[C@H](NC(=O)c1ccc(CNC(=O)/C=C/c2cccc(Oc3ccccc3)c2)cc1)c1ccccc1	22.6 µM (inactive)	> 100 µM (inactive)	> 100 µM (inactive)	> 100 µM (inactive)	> 100	36.9 µM (inactive)	> 100 µM (inactive)	49.9 µM (inactive)	> 100 µM (inactive)	> 100 µM (inactive)	> 100 µM (inactive)	> 100 µM (inactive)	26.7 µM (inactive)	58.5 µM (inactive)	> 100 µM (inactive)	> 100 µM (inactive)	37.8 µM (inactive)	15.2 µM (inactive)	49.2 µM (inactive)	> 100 µM (inactive)
COC(=O)C(COC(=O)/C=C/c1ccc(OC(C)=O)c(OC(C)=O)c1)NC(=O)/C=C/c1ccc(OC(C)=O)c(OC(C)=O)c1 (stereo not given)	18.5 µM (inactive)	16.1 µM (inactive)	25.5 µM (inactive)	19.4 µM (inactive)	25.5	23 µM (inactive)	19.8 µM (inactive)	30.3 µM (inactive)	11.3 µM (inactive)	18.1 µM (inactive)	13.6 µM (inactive)	19.6 µM (inactive)	37.1 µM (inactive)	14.7 µM (inactive)	67 µM (inactive)	19.6 µM (inactive)	22.9 µM (inactive)	29.9 µM (inactive)	28.4 µM (inactive)	44.4 µM (inactive)
CCOC(=O)C(Cc1cccn1C(=O)OC(C)(C)C)[N+](=O)[O-] (stereo not given)	24.7 µM (inactive)	17.1 µM (inactive)	48.3 µM (inactive)	21 µM (inactive)	24.3	23.9 µM (inactive)	22.3 µM (inactive)	29.9 µM (inactive)	28.1 µM (inactive)	19.6 µM (inactive)	20.7 µM (inactive)	20.5 µM (inactive)	17.6 µM (inactive)	21.2 µM (inactive)	> 100 µM (inactive)	23.9 µM (inactive)	25.2 µM (inactive)	23.7 µM (inactive)	20.8 µM (inactive)	28.3 µM (inactive)
C/C=C/[C@H]1O[C@@](O)([C@@H](C)[C@H](O)[C@H](C)[C@H]2OC(=O)/C(OC)=C/C(C)=C/[C@@H](C)[C@@H](O)[C@@H](CC)[C@@H](O)[C@H](C)C/C(C)=C/C=C/[C@@H]2OC)C[C@H](OC2CC(O)C(OC(N)=O)C(C)O2)[C@@H]1C (stereo not given in full)	0.0532 µM (active)	< 0.01 µM (active)	0.0719 µM (active)	0.0787 µM (active)	0.0426	< 0.0249 µM (active)	< 0.01 µM (active)	12.4 µM (inactive)	0.122 µM (active)	0.0399 µM (active)	< 0.01 µM (active)	< 0.0157 µM (active)	8.87 µM (inactive)	0.0142 µM (active)	12.8 µM (inactive)	5.65 µM (inactive)	8.22 µM (inactive)	0.525 µM (active)	< 0.0281 µM (active)	0.0641 µM (active)
CCc1c[n+]([O-])c(C)cc1[N+](=O)[O-]	40.4 µM (inactive)	> 100 µM (inactive)	29.6 µM (inactive)	24.3 µM (inactive)	18.8	> 100 µM (inactive)	82.8 µM (inactive)	> 100 µM (inactive)	40.1 µM (inactive)	55.3 µM (inactive)	> 100 µM (inactive)	33.5 µM (inactive)	22.4 µM (inactive)	> 100 µM (inactive)	> 100 µM (inactive)	53.7 µM (inactive)	> 100 µM (inactive)	78.3 µM (inactive)	99.5 µM (inactive)	> 100 µM (inactive)
CC1(C)C=C(/C=N/Nc2ccc([N+](=O)[O-])cc2)C(C#N)=C(O)C1(C#N)C#N	> 100 µM (inactive)	> 100 µM (inactive)	> 100 µM (inactive)	> 100 µM (inactive)	> 100	> 100 µM (inactive)	> 100 µM (inactive)	> 100 µM (inactive)	> 100 µM (inactive)	> 100 µM (inactive)	> 100 µM (inactive)	> 100 µM (inactive)	> 100 µM (inactive)	> 100 µM (inactive)	> 100 µM (inactive)	> 100 µM (inactive)	> 100 µM (inactive)	> 100 µM (inactive)	> 100 µM (inactive)	> 100 µM (inactive)
COc1cc(C)cc2c1c(=O)c1ccccc1n2C	54.8 µM (inactive)	24.4 µM (inactive)	55.3 µM (inactive)	45.7 µM (inactive)	36.4	41.4 µM (inactive)	28.7 µM (inactive)	48.3 µM (inactive)	39.7 µM (inactive)	34 µM (inactive)	29.2 µM (inactive)	19.7 µM (inactive)	28.3 µM (inactive)	25 µM (inactive)	60 µM (inactive)	37.5 µM (inactive)	54.8 µM (inactive)	41.7 µM (inactive)	33.9 µM (inactive)	40.2 µM (inactive)
CC(C)=CCC/C(C)=C/CC/C(C)=C/CC/C(C)=C/CC/C(C)=C/CC/C(C)=C/CC/C(C)=C/CC/C(C)=C/CC/C(C)=C/CO [SOLANESOL]	> 100 µM (inactive)	> 100 µM (inactive)	> 100 µM (inactive)	> 100 µM (inactive)	> 100	> 100 µM (inactive)	> 100 µM (inactive)	> 100 µM (inactive)	> 100 µM (inactive)	> 100 µM (inactive)	> 100 µM (inactive)	> 100 µM (inactive)	> 100 µM (inactive)	> 100 µM (inactive)	> 100 µM (inactive)	> 100 µM (inactive)	> 100 µM (inactive)	> 100 µM (inactive)	> 100 µM (inactive)	> 100 µM (inactive)
CCOC(=O)Oc1cc2c(c(OC)c1OC)-c1ccc(SC)c(=O)cc1C(NC(=O)C(F)(F)F)CC2 (stereo not given)	0.0147 µM (active)	< 0.001 µM (active)	0.201 µM (active)	0.0435 µM (active)	0.00221	0.00191 µM (active)	< 0.001 µM (active)	< 0.001 µM (active)	< 0.001 µM (active)	< 0.001 µM (active)	0.026 µM (active)	< 0.001 µM (active)	< 0.001 µM (active)	< 0.001 µM (active)	< 0.001 µM (active)	0.00199 µM (active)	0.00316 µM (active)	< 0.001 µM (active)	0.00145 µM (active)	0.00223 µM (active)
C=CC(=O)N1C/C(=C\c2ccc(F)cc2)C(=O)/C(=C/c2ccc(F)cc2)C1	0.475 µM (active)	0.0883 µM (active)	0.887 µM (active)	0.267 µM (active)	0.166	0.516 µM (active)	0.071 µM (active)	0.235 µM (active)	0.735 µM (active)	0.476 µM (active)	0.215 µM (active)	0.0318 µM (active)	0.185 µM (active)	0.811 µM (active)	0.711 µM (active)	0.454 µM (active)	0.944 µM (active)	0.35 µM (active)	0.188 µM (active)	1.19 µM (inactive)
CC1(C)CC(=O)C2=C(C1)OC1=C(CC(C)(C)CC1=O)C2c1ccccc1Cl (stereo not given)	> 100 µM (inactive)	> 100 µM (inactive)	> 100 µM (inactive)	> 100 µM (inactive)	> 100	59.2 µM (inactive)	> 100 µM (inactive)	> 100 µM (inactive)	> 100 µM (inactive)	> 100 µM (inactive)	> 100 µM (inactive)	> 100 µM (inactive)	> 100 µM (inactive)	43.5 µM (inactive)	> 100 µM (inactive)	> 100 µM (inactive)	> 100 µM (inactive)	> 100 µM (inactive)	> 100 µM (inactive)	> 100 µM (inactive)
NNc1nc2ccccc2c(=O)n1NC(=O)C(=O)Nc1cccc(C(F)(F)F)c1	> 100 µM (inactive)	> 100 µM (inactive)	> 100 µM (inactive)	> 100 µM (inactive)	> 100	> 100 µM (inactive)	> 100 µM (inactive)	> 100 µM (inactive)	> 100 µM (inactive)	> 100 µM (inactive)	> 100 µM (inactive)	> 100 µM (inactive)	> 100 µM (inactive)	> 100 µM (inactive)	> 100 µM (inactive)	> 100 µM (inactive)	> 100 µM (inactive)	> 100 µM (inactive)	> 100 µM (inactive)	> 100 µM (inactive)
CCC(=O)Oc1c2ccsc2c(OC(=O)CC)c2ccsc12	2.42 µM (inactive)	0.478 µM (active)	0.871 µM (active)	1.93 µM (inactive)	0.318	0.849 µM (active)	2.41 µM (inactive)	0.372 µM (active)	0.039 µM (active)	0.474 µM (active)	0.339 µM (active)	0.452 µM (active)	1 µM (active)	0.0753 µM (active)	6.62 µM (inactive)	0.353 µM (active)	0.54 µM (active)	0.184 µM (active)	0.389 µM (active)	0.171 µM (active)
Cc1nc2ccccc2n1Cc1ccc(NC(=S)NC2CCCCC2)cc1	38 µM (inactive)	10 µM (inactive)	12.3 µM (inactive)	36.6 µM (inactive)	8.95	> 75 µM (inactive)	30.3 µM (inactive)	29 µM (inactive)	21.7 µM (inactive)	8.34 µM (inactive)	31.3 µM (inactive)	13.4 µM (inactive)	23.8 µM (inactive)	4.14 µM (inactive)	> 92.7 µM (inactive)	7.03 µM (inactive)	32.8 µM (inactive)	24 µM (inactive)	32.6 µM (inactive)	13.5 µM (inactive)
